Consider 14 molecules from US20050282818A1, “Ubiquitin ligase inhibitors” (Rigel Pharmaceuticals, Inc., priority 2004, published 2005).

The target of one assay is APC11/APC2 (Homo sapiens, UniProt Q9NYG5+Q9UJX6). In words: APC-11/APC-2 ligase assay (APC auto ubiquitination). The class given is biochemical. As to conditions: APC assay. In short, it runs like this: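 His-tagged APC was captured on nickel plates with human E1 (5 ng/well), UbcH5c (20 ng/well), APC (100 ng/well) and Flag-ubiquitin (100 ng/well) in a Tris pH 7.6 reaction buffer containing 2.5 mM ATP, for 1 hour at room temperature. Read-out was anti-Flag/HRP chemiluminescence. IC50 was set against a DMSO control, typically from 6 or 8 concentrations.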
Chain of APC11/APC2 (Q9NYG5 whole entry): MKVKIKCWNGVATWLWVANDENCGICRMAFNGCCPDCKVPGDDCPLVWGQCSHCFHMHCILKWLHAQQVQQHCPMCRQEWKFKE
Chain of APC11/APC2 (Q9UJX6 whole entry): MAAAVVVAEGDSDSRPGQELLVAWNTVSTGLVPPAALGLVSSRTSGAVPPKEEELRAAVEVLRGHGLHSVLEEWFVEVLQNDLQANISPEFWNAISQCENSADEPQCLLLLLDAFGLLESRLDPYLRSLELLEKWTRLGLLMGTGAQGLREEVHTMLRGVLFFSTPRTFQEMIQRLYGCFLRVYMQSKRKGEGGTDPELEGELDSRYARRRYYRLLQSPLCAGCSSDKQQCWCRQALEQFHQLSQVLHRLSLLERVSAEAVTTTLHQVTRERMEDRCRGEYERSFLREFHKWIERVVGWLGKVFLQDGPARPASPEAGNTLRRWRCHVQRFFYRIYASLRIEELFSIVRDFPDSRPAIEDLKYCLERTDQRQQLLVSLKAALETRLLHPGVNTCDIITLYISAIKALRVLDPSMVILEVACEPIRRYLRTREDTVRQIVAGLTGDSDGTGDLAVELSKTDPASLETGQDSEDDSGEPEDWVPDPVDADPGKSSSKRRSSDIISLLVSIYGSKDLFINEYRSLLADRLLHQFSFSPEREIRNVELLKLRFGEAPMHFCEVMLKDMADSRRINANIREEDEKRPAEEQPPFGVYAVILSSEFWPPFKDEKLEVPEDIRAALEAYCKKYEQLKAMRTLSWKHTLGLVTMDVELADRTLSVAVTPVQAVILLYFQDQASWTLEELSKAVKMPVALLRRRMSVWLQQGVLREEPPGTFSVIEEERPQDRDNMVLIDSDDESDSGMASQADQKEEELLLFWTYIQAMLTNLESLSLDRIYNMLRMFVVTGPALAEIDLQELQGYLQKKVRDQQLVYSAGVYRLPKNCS

The subject of assay [1] is ICAM-1 expression in A549 cells. As to the kind of experiment: ICAM assay (IL-1 induced ICAM-1/CD54 expression in A549 cells). The class given is cell-based, human. Summed up:
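A549 cells, 10,000/well, preincubated with compound 1 h at 37° C, then stimulated with IL-1 (4 μl of 25 ng/ml added) for 4 h. Surface ICAM-1 detected by anti-CD54 plus anti-mouse IgG staining for 1 h, luminescent read-out after PBS washes.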

Molecules are shown by their SMILES.

A word on the IC50: it is the midpoint of a concentration-inhibition curve. A low value points to greater potency in that assay. For `O=[N+]([O-])c1ccc(Sc2nc3ccccc3s2)c2nonc12` [compound 158, 4-(1,3-benzothiazol-2-ylthio)-7-nitro-2,1,3-benzoxadiazole], the IC50 is 1 to 20 µM against APC11/APC2 and at least 20 µM in assay [1] (Homo sapiens, A549, ICAM assay).
Turning to `O=S(=O)(c1c(Cl)ccc2nonc12)N1CCN(c2ncc(C(F)(F)F)cc2Cl)CC1` [compound 179, 5-chloro-4-({4-[3-chloro-5-(trifluoromethyl)pyridin-2-yl]piperazin-1-yl}sulfonyl)-2,1,3-benzoxadiazole], the IC50 against APC11/APC2 was 1 to 20 µM; in assay [1] (Homo sapiens, A549, ICAM assay) it was at least 20 µM.
On APC11/APC2, `Cc1cc(C)cc(-c2ccc([N+](=O)[O-])c3nonc23)c1` [compound 286, 4-(3,5-Dimethylphenyl)-7-nitro-2,1,3-benzoxadiazole] had an IC50 of 1 to 20 µM.
With `O=[N+]([O-])c1ccc(-c2cccc(C(F)(F)F)c2)c2nonc12` [compound 309, 4-Nitro-7-[3-(trifluoromethyl)phenyl]-2,1,3-benzoxadiazole], the IC50 is 1 to 20 µM at APC11/APC2 and 1 to 20 µM in assay [1] (Homo sapiens, A549, ICAM assay).
Take `Cc1cccc(-c2ccc([N+](=O)[O-])c3nonc23)c1` [compound 310, 4-(3-Methylphenyl)-7-nitro-2,1,3-benzoxadiazole]: the IC50 on APC11/APC2 was 1 to 20 µM; in assay [1] (Homo sapiens, A549, ICAM assay), 1 to 20 µM.
With `CC(C)(C)c1ccc(-c2ccc([N+](=O)[O-])c3nonc23)cc1` [compound 313, 4-(4-Tert-butylphenyl)-7-nitro-2,1,3-benzoxadiazole], the IC50 was in the range of 1 to 20 µM on APC11/APC2 and 1 to 20 µM in assay [1] (Homo sapiens, A549, ICAM assay).
As for `COc1cccc(-c2ccc([N+](=O)[O-])c3nonc23)c1F` [compound 314, 4-(2-Fluoro-3-methoxyphenyl)-7-nitro-2,1,3-benzoxadiazole], the IC50 against APC11/APC2 fell in the range of 1 to 20 µM.
Same read-out and setting: with `O=[N+]([O-])c1ccc(N2CCN(c3ncc(C(F)(F)F)cc3Cl)CC2)c2nonc12` [compound 315, 4-{4-[3-chloro-5-(trifluoromethyl)pyrindin-2-yl]piperazin-1-yl}-7-nitro-2,1,3-benzoxadiazole] the figure was under 1 µM.
Regarding `O=S(=O)(Nc1ccc2cn[nH]c2c1)c1c(O)ccc2nonc12` [compound 339, 5-hydroxy-N-(1H-indazol-6-yl)2,1,3-benzoxadiazole-4-sulfonamide], the IC50 at APC11/APC2 is at least 20 µM; in assay [1] (Homo sapiens, A549, ICAM assay) it was at least 20 µM.
Regarding `O=S(=O)(c1c(N2CCC(Oc3ccccc3C(F)(F)F)CC2)ccc2nonc12)N1CCC(Oc2ccccc2C(F)(F)F)CC1` [compound 340, 5-[4-(2-{trifluoromethyl}phenoxy)piperidin-1-yl]-4-{[4-(2-{trifluoromethyl}phenoxy)piperidin-1-yl]sulfonyl}-2,1,3-benzoxadiazole], the IC50 is at least 20 µM against APC11/APC2 and at least 20 µM in assay [1] (Homo sapiens, A549, ICAM assay).
As for `COc1cc(NS(=O)(=O)c2ccc(Cl)c3nonc23)c(OC)cc1Cl` [compound 341, 7-chloro-N-(4-chloro-2,5-dimethoxyphenyl)-2,1,3-benzoxadiazole-4-sulfonamide], the IC50 was at least 20 µM at APC11/APC2 and 1 to 20 µM in assay [1] (Homo sapiens, A549, ICAM assay).
As for `COc1cc(Nc2ccc(S(=O)(=O)Nc3cc(OC)c(Cl)cc3OC)c3nonc23)c(OC)cc1Cl` [compound 342, N-(4-chloro-2,5-dimethoxyphenyl)-7-([4-chloro-2,5-dimethoxyphenyl]amino)-2,1,3-benzoxadiazole-4-sulfonamide], the IC50 (on APC11/APC2; in assay [1] (ICAM assay)) was 1 to 20 µM each time.
Take `COc1cc(NS(=O)(=O)c2c(Cl)ccc3nonc23)c(OC)cc1Cl` [compound 343, 5-chloro-N-(4-chloro-2,5-dimethoxyphenyl)-2,1,3-benzoxadiazole-4-sulfonamide]: the IC50 against APC11/APC2 is at least 20 µM; in assay [1] (Homo sapiens, A549, ICAM assay), 1 to 20 µM.
In the same order, the values of `COc1cc(Nc2ccc3nonc3c2S(=O)(=O)Nc2cc(OC)c(Cl)cc2OC)c(OC)cc1Cl` [compound 344, N-(4-chloro-2,5-dimethoxyphenyl)-5-([4-chloro-2,5-dimethoxyphenyl]amino)-2,1,3-benzoxadiazole-4-sulfonamide] are at least 20 µM and at least 20 µM.
